Reference: patent US20170296456A1, “PRODUCTS AND METHODS FOR TREATING PERIORBITAL DYSCHROMIA” (The Procter & Gamble Company, priority 2016, published 2017)

Tested on: B16-F1 mouse melanoma cell line
Test: B16 melanin synthesis inhibition assay
Assay type: cell-based
Conditions: B16-F1 cells, OD 410 nm
Experimental: In this example, a commercially available B16-F1 mouse melanoma cell line from American Tissue Culture Collection, Virginia, USA was employed in a conventional melanin synthesis inhibition assay. The cell culture medium used in the assay is 500 mL of Dulbecco's Modified Eagle's Medium (DMEM), 50 mL Fetal Bovine Serum (FBS), and 5 mL of penicillin-streptomycin liquid. B16-F1 cells that are cultured in this medium and grown to greater than 90% confluency will synthesize melanin. While not intending to be bound by any theory, it is hypothesized that the melanin synthesis is stimulated by the culture medium and/or stress induced by growth to a high confluency. […] Equipment used in the assay include a CO2 incubator, such as a Forma Series Model 3110 by Therma Scientific, Massachusetts, USA; a hemocytometer, such as a Bright Line model by Hauser Scientific, Pennsylvania, USA; and a UV-Visible Spectrum Plate Reader, such as a SpectraMax250 from Molecular Devices, California, USA. […] Day 3: The cells from the T-150 flask are trypsinized, and the concentration of cells is determined using the hemacytometer. […] Read the 96 well plate using the UV-Vis Plate Reader at 410 nm to optically measure the amount of melanin produced between wells that are treated with the fava bean extract and control wells that are not. […] The concentration of test agent needed to provide the IC 50 is recorded. […]

Concentration Needed for IC 50	Compound
0.008 v/v	Oc1ccc(OC2CCCCO2)cc1 (centres unmarked) [Deoxyarbutin]
0.01 v/v	O=c1cc(CO)occ1O [Kojic Acid]
